Legend:
DU145 [1] = experiment: CellTiter-Glo (CTG) viability assay, DU145; assay type: cell-based; settings: Homo sapiens, DU-145, 72 h
PC3 = experiment: CellTiter-Glo (CTG) viability assay, PC3; assay type: cell-based; settings: Homo sapiens, PC-3, 72 h
LNCaP = experiment: CellTiter-Glo (CTG) viability assay, LNCaP; assay type: cell-based; settings: Homo sapiens, 72 h
DU145 [2] = experiment: Protein expression of TRAIL pathway proteins, DU145; assay type: cell-based; settings: DU145 treated with ONC201 at IC50; 12, 24 and 48 hours
From the text: FIGS. 2A-2C provide images showing NED marker expression in PC and SCLC.

22RV1 = experiment: Protein expression of TRAIL pathway proteins, 22RV1; assay type: cell-based; settings: 22RV1 treated with ONC201 at IC50; 12, 24 and 48 hours
[3] = system: tumor cell lines (n=6) from prostate and small cell lung cancer tissues; experiment: CellTiter-Glo (CTG) viability assay, panel of tumor cell lines; settings: 6 PC and SCLC cell lines; varying drug concentrations, 72 hours

Structure (SMILES): Cc1ccccc1CN1C(=O)C2=C(CCN(Cc3ccccc3)C2)N2CCN=C12 [ONC201]
- IC50 (DU145 [1]): 3.11 µM
- IC50 (PC3): 3.02 µM
- IC50 (LNCaP): 1.33 µM
- ATF4 protein expression (DU145 [2]): upregulation of ATF4 ISR pathway
- CLpX protein expression (DU145 [2]): decreased CLpX expression
- ATF4 protein expression (22RV1): upregulation of ATF4 ISR pathway
- CLpX protein expression (22RV1): decreased CLpX expression
- Sensitivity and cytotoxicity (viability) [3]: shows sensitivity and cytotoxicity to tumor cell lines
